Laboratory results from patent publication US9718809B2, “Bisarylsulfonamides useful in the treatment of inflammation and cancer” (Kancera AB, priority 2011, dated 2017).

Columns and labels:
F-2,6-P2 in MCF-7 cells = assay: Quantification of F-2,6-P2 (Van Schaftingen coupled enzyme assay) in MCF-7 cells; format: cell-based; conditions: Homo sapiens, MCF7, read-out: IC50 based on quantification of F-2,6-P2
Description: (§1) A method for quantification of F-2,6-P2 has been described by Van Schaftingen et al. (1982) Eur. J. Biochem. 129, 191-5. This sensitive assay is based on the potent activation of pyrophosphate dependent phosphofructokinase-1 (PPi-PFK) from potato tubers by F-2,6-P2. The use of a series of coupled enzymes leads to a consumption of NADH (nicotinamide adenine dinucleotide) that can be followed spectrophotometrically (an updated protocol is available in Van Schaftingen, (1984) Methods of Enzymatic Analysis (Bergmeyer, H. U., ed.), 3rd edn., vol. 6, pp. 335-341, Verlag Chemie, Weinheim). A protocol for measurements in 96-well microtiter plate format is also available (Bruni et al., (1989) Anal. Biochem. 178, 324-6).
(§2) The levels of F-2,6-P2 have been determined using the van Shaftingen assay as described in the protocol below, in six different cancer cell lines endogenously expressing varying levels of the different isoforms of PFK-2/BPase-2 (MCF-7, PANC-1, NUGC-3, SW480, SW620 and MIA PaCa-2). All reagents were purchased from commercial sources or prepared in-house.
Cell line A (MCF-7, human breast adenocarcinoma cell line): MCF-7 cells (ATCC-HTB-22), lot. no. 58469417. […]

[1] = Plasma exposure in NMRI nude mice; format: in vivo, mouse; conditions: 45 mg/kg, 0.5 h after last injection (day 21)
Description: In a related study using the same dosing schedule in NMRI nude mice, blood samples were drawn 0.5 h after last injection (day 21) to determine exposure of Example 183. Plasma, prepared by centrifugation of the blood, was frozen and kept at −20° C. Thawed plasma samples were precipitated with MeCN, centrifuged and the supernatants were analyzed by LC-MSMS. Standard samples, prepared by spiking blank plasma with Example 183, were used for quantification.

[2] = Cell toxicity, CellTiter-Blue Cell Viability Assay; conditions: human, MIA PaCa-2 pancreatic carcinoma cells, MIA PaCa-2 cells, 72 h culture, read-out: IC50 based on cell toxicity
Description: The CellTiter-Blue® Cell Viability Assay provides a homogeneous, fluorometric method for estimating the number of viable cells present in multi-well plates. It uses the indicator dye resazurin to measure the metabolic capacity of cells. Viable cells retain the ability to reduce resazurin into resorufin, which is highly fluorescent.
Stock solutions (10 or 100 mM in DMSO) of compounds were serially diluted 1:2 in 11 concentrations. 25 nL/well (100 mM stock) or 50 nL/well (10 mM stock) were acoustically dispensed in assay plates with EDC acoustic dispenser. Final starting conc. in assay was 20 μM (0.2% DMSO) or 100 μM (0.1% DMSO) for test compounds.
Cells (MIA-PaCa-2; pancreatic carcinoma) were seeded in assay plates (384-well black/clear, Greiner #781091) pre-dispensed with compounds, 25 μL/well, and cultured for 72 h. The cell concentration was 750 cells/well. After 72 h culture, Celltiter Blue reagent was added (5 μL/well) and the plates were incubated for 2 h. The plates were read in an Envision fluorescence reader with Ex544 nm/Em590 nm. Results were calculated as % cytotoxicity compared to background (cells treated with 0.2% DMSO).

MIA PaCa-2 xenografts = assay: Inhibition of tumour growth, MIA PaCa-2 xenografts in NMRI nude mice; format: in vivo, mouse; conditions: 45 mg/kg twice a day, 3 weeks
Description: FIG. 3 illustrates the effects of treatment with Example 183 on the growth of established xenografts from the human pancreatic carcinoma cell line MIA PaCa-2 in NMRI nude mice. NMRI nude mice were injected subcutaneously with MIA PaCa-2 cells. At an average tumor size of around 100 mm^3 mice were selected and randomized into treated (injected with substance) and control (vehicle treated) groups. Example 183 was administered at two doses, 25 mg/kg and 45 mg/kg, twice a day with 12 hours between administrations. From the day of inoculation the tumors were scored or measured three times a week using a digital caliper, and the body weights were determined at the same time points. The dose of injected substance was adjusted to the actual body weight of each animal. The dosing of the animals was in a period of 3 weeks.

[3] = In vitro metabolic stability in human liver microsomes; format: in vitro ADME; conditions: pH 7.4, pooled human liver microsomes 0.5 mg/ml, NADPH 1 mM, compound 3 μM
Description: Pooled human liver microsomes (final protein conc 0.5 mg/ml), 0.1 M phosphate buffer (pH 7.4) and NADPH (final conc 1 mM) were pre-incubated at 37° C. Example 183 (final conc 3 μM) was added to initiate the reaction. A control incubation where 0.1 M phosphate buffer (pH 7.4) was added instead of NADPH was done as a parallel experiment. After incubation for 0, 5, 10, 30 and 45 min with NADPH (for 45 min in the control incubation), MeCN containing internal standard was added to stop the reactions. The samples were centrifuged at 2500 rpm for 20 min at 4° C. before analysis using LC-MS/MS.

[4] = test system: F-2,6-P2 in MIA PaCa-2 cells; assay: Quantification of F-2,6-P2 (Van Schaftingen coupled enzyme assay) in MIA PaCa-2 cells; format: cell-based; conditions: Homo sapiens, read-out: IC50 based on quantification of F-2,6-P2
Description: as §1, §2
Cell line F (MIA PaCa-2, human pancreatic carcinoma): MIA PaCa-2 cells (ATCC-CRL-1420), lot. no. 59270201. Cells were seeded at a concentration of ˜250 000 cells/mL in 100 μL growth medium (˜25 000 cells/well). […]

NMRI mice = assay: In vivo tolerance in NMRI mice; parameters: species or system mouse; conditions: 25 and 45 mg/kg
Description: In vivo tolerance was tested in NMRI mice using Examples 157 and 183 in 2 doses (25 and 45 mg/kg), following intraperitoneal injections daily for seven days.

With `COCCOC(=O)c1ccc(NS(=O)(=O)c2cc(-c3ccc4c(c3)CCO4)c(Cl)s2)cc1O` [Example 76, 2-Methoxyethyl 4-({[5-chloro-4-(2,3-dihydro-1-benzofuran-5-yl)-2-thienyl]sulfonyl}amino)-2-hydroxybenzoate] as the compound, how does the IC50 (F-2,6-P2 in MCF-7 cells) read?
Its IC50 is 900 nM.

What does the source list for `O=C(OCCO)c1ccc(NS(=O)(=O)c2cccc(-c3cc(F)ccc3O)c2)cc1O` [Example 183, 2-Hydroxyethyl 4-{[(5′-fluoro-2′-hydroxybiphenyl-3-yl)sulfonyl]amino}-2-hydroxybenzoate]?
exposure of unbound compound in plasma versus in vitro IC50 value (MIA PaCa-2 cells) [1]: exceeded the in vitro IC50 value; IC50 at 72 h [2]: 2600 nM; tumor growth compared to a vehicle treated group (MIA PaCa-2 xenografts): significant inhibition (p<0.01); half-life at 3 μM [3]: 55 min; microsomal CLint at 3 μM ([3]; read-out: intrinsic clearance): 25 µL/min/mg; IC50 [4]: 200 nM; histological examinations of organs (NMRI mice; intraperitoneal daily for seven days, adrenal gland, brain, cerebellum, heart, intestines, kidneys, liver, lungs, mesenteric lymph node, pancreas, spleen): Specific lesions consistent with toxic damage were not observed; macro observations during and after treatment (NMRI mice; intraperitoneal injections daily for seven days): no sign of abnormal behavior or health problem
